Measurements as given in the NIST ThermoML archive (doi:10.1021/je0499723).
Numbers after ± are expanded uncertainties.

Experiments:
[1] = xn = mol fraction of the nth substance listed; details: Liquid
[2] = Liquid; for Critical pressure: Direct measurement; for Critical temperature: Visual observation in an unstirred cell

| SMILES | Critical density ([1]; x1 = 1) | Critical density [2] | Critical pressure [2] | Critical temperature [2] | Critical density ([1]; x2 = 0) | also measured |
| --- | --- | --- | --- | --- | --- | --- |
| COC(F)(F)F [trifluoromethoxymethane] + FC(F)C(F)(F)F | 459 ± 11 kg/m3 | – | – | – | – | Critical density ([1]; x1 = 0.1859): 555 ± 13 kg/m3; Critical density ([1]; x1 = 0.3073): 523 ± 12 kg/m3; Critical density ([1]; x1 = 0.5185): 515 ± 12 kg/m3; Critical density ([1]; x1 = 0.7094): 491 ± 11 kg/m3; Critical density ([1]; x1 = 0.8305): 479 ± 11 kg/m3 |
| FC(C(F)(F)F)C(F)(F)F [1,1,1,2,3,3,3-heptafluoropropane] | – | 598 ± 14 kg/m3 | 2930 ± 12 kPa | 375 ± 0.16 K | – | – |
| FC(F)C(F)C(F)(F)F (stereo not drawn) [1,1,1,2,3,3-hexafluoropropane] + COC(F)(F)F | – | – | – | – | 562 ± 13 kg/m3 | Critical density ([1]; x2 = 0.2452): 545 ± 13 kg/m3; Critical density ([1]; x2 = 0.3348): 541 ± 13 kg/m3; Critical density ([1]; x2 = 0.5434): 518 ± 12 kg/m3; Critical density ([1]; x2 = 0.7338): 497 ± 12 kg/m3; Critical density ([1]; x2 = 0.8497): 476 ± 11 kg/m3 |
| FC(F)C(F)C(F)(F)F (stereo not drawn) [1,1,1,2,3,3-hexafluoropropane] | – | 562 ± 13 kg/m3 | 3416 ± 12 kPa | 412.41 ± 0.16 K | – | – |
| COC(F)(F)F [trifluoromethoxymethane] | – | 459 ± 11 kg/m3 | 3640 ± 12 kPa | 377.92 ± 0.16 K | – | – |
| COC(F)(F)F [trifluoromethoxymethane] + FCC(F)(F)F | 459 ± 11 kg/m3 | – | – | – | – | Critical density ([1]; x1 = 0.1649): 508 ± 12 kg/m3; Critical density ([1]; x1 = 0.2914): 492 ± 11 kg/m3; Critical density ([1]; x1 = 0.4897): 486 ± 11 kg/m3; Critical density ([1]; x1 = 0.6543): 480 ± 11 kg/m3; Critical density ([1]; x1 = 0.8151): 468 ± 11 kg/m3 |
| FCC(F)(F)F [1,1,1,2-tetrafluoroethane] + COC(F)(F)F | – | – | – | – | 508 ± 12 kg/m3 | – |
| COC(F)(F)F [trifluoromethoxymethane] + FC(C(F)(F)F)C(F)(F)F | 459 ± 11 kg/m3 | – | – | – | – | Critical density ([1]; x1 = 0.1647): 574 ± 13 kg/m3; Critical density ([1]; x1 = 0.3999): 543 ± 13 kg/m3; Critical density ([1]; x1 = 0.4999): 526 ± 12 kg/m3; Critical density ([1]; x1 = 0.6664): 508 ± 12 kg/m3; Critical density ([1]; x1 = 0.8165): 486 ± 11 kg/m3 |
| COC(F)(F)F [trifluoromethoxymethane] + FC(F)C(F)C(F)(F)F | 459 ± 11 kg/m3 | – | – | – | – | – |
| FC(C(F)(F)F)C(F)(F)F [1,1,1,2,3,3,3-heptafluoropropane] + COC(F)(F)F | – | – | – | – | 598 ± 14 kg/m3 | – |
| FCC(F)(F)F [1,1,1,2-tetrafluoroethane] | – | 508 ± 12 kg/m3 | 4053 ± 12 kPa | 374.13 ± 0.16 K | – | – |
| FC(F)C(F)(F)F [pentafluoroethane] | – | 560 ± 13 kg/m3 | 3617 ± 12 kPa | 339.2 ± 0.16 K | – | – |
| FC(F)C(F)(F)F [pentafluoroethane] + COC(F)(F)F | – | – | – | – | 560 ± 13 kg/m3 | – |
